# Source: patent publication US9567347B2, “Use of small molecule inhibitors targeting the interaction between RAC GTPase and p67(phox)” (CHILDREN'S HOSPITAL MEDICAL CENTER, priority 2012, dated 2017)
# What was measured:
# [1] = tested on: fMLP-stimulated differentiated HL-60 cells; test: H2-DCFDA FACS ROS production assay in fMLP-stimulated differentiated HL-60 cells; assay type: cell-based, human; settings: treated 2 hours, FIG. 5B
# Experimental: HL-60 cells were propagated in RPMI 1640 medium containing 10% heat inactivated fetal bovine serum, 2 mM L-glutamine, 100 U/mL penicillin/streptomycin at 37° C. in air containing 5% CO2. For differentiation, HL-60 cells were cultured in 1.3% dimethyl sulfoxide (DMSO) as previously described (Servant, G., et al. (1999) Mol Biol Cell 10, 1163-1178, hereby incorporated by reference in its entirety). Primary murine neutrophils were isolated from C57Bl/6 mouse bone marrow according to a published protocol (Filippi et al., (2004) Nat Immunol 5, 744-751, hereby incorporated by reference in its entirety) using a discontinuous Percoll (Pharmacia) gradient and were utilized immediately in experiments. Human neutrophils were obtained from fresh blood (IRB #2010-1855, Cincinnati Children's Hospital medical Center) following a well established protocol using density gradient separation from whole blood (Oh et al. (2008) J Vis Exp., 17, pii: 745, hereby incorporated by reference in its entirety).
# (§1) Cells (5×10^5) were harvested and processed for Annexin V/7AAD staining according to manufacturer's protocol (Becton Dickinson). Flow cytometry data were acquired on a FACS Canto bench-top flow cytometer (Becton Dickinson) and the cell cycle distributions were determined by […] using Flo-Jo software (Bosco et al (2010) Blood 115, 3320-3328, hereby incorporated by reference in its entirety). For ROS production assay, primary murine neutrophils or dHL60 cells were incubated with compound for 2 hours prior to addition of H2-DCFDA according to manufacturer's instructions (Molecular Probes). Cells were then stimulated with 10 μM fMLP (Sigma), 1 mM CaCl2, and 1.5 mM MgCl2 for 15 minutes prior to wash and FACS analysis for mean fluorescence intensity. Non-fMLP stimulated control values were subtracted from all samples before normalization to fMLP-stimulated, vehicle control treated sample in order to display percent ROS inhibition.
# To validate the hits from preliminary screening in cells, several cellular functional assays were performed using different cell types to measure the effect of compounds on inhibition of ROS production. ROS levels were first analyzed by fluorescence-activated cell sorting (FACS) in HL-60 pre-incubated with compounds for 2 hr prior to stimulation of ROS production. The p67^phox inhibitor, Phox-I1, was tested against NAC (a ROS scavenger), DPI (a broad range inhibitor of NADPH oxidase), and NSC23766 (a Rac-GTP inhibitor; FIG. 2A). […] H2O2 added to the cells was included as a positive control for ROS measurement. Second, to test the capacity of Phox-I1 to inhibit ROS production in a primary cell context, primary murine neutrophils isolated from mouse bone marrow were treated with increasing concentrations of Phox-I1 and the efficacy of inhibition of fMLP-stimulated ROS production was analyzed. DPI treatment was included as a positive control for inhibition of ROS production (FIG. 2B). […] Next, to ascertain the optimal effective dose for ROS inhibition in cells, a dose titration series of Phox-I1 was administered to dHL-60 cells (FIG. 2C).
# [2] = tested on: fMLP-activated primary murine neutrophils; test: Nitroblue tetrazolium (NBT) assay; assay type: cell-based, mouse; settings: for ROS inhibition (NBT positive cells): 10 μM, FIG. 9
# Experimental: Primary neutrophils from mouse bone marrow were subjected to fMLP stimulation in the presence or absence of various chemicals for 5 min. Cells were stained for NBT activity as previously described in the incorporated materials of Filippi et al. (2004) to reveal relative ROS production.
# To complement the DCFDA based FACS analysis and the luminol chemiluminescence method, nitroblue tetrazolium (NBT) assays were performed in fMLP-activated primary murine neutrophils (FIG. 3C).
# The NBT assay was performed in primary murine neutrophils to measure ROS neutrophil production. […] Each compound was used at 10 μM.
# LPS-induced ALI in mice = settings: 5 mg/kg i.p. every 8 hours, 24 hours after LPS
# Experimental: FIG. 8. […] Mice were challenged with LPS or vehicle via intratracheal administration and treated or not with compound 100 (indicated as “NOX2-I”; 5 mg/kg, 3 injections every 8 hours). (A) Isoprostane, as an indication of ROS production, was measured in lung homogenates 24 hours following LPS challenge by ELISA. (B) Lung histology was performed 24 hours after LPS challenge. (n=3 mice per group). Representative images of histology are shown.
# One life-threatening consequence of hemorrhagic shock is acute lung injury (ALI), which is associated with infiltration of neutrophils and release of ROS. A model of LPS-induced ALI was used in mice to test efficacy of the difluoro compound 100 in vivo.
# Mice (N=3 per group) were treated with LPS (100 ng in 80 μl PBS) or PBS (vehicle) employing oral-tracheal intubation. Following challenge, the mice were injected i.p. with 5 mg/kg of compound 100, every 8 hours. The relative level of ROS release in the lungs upon LPS challenge was assessed by measuring 8-isoprostane by ELISA in lung tissue homogenates. Isoprostanes are a family of eicosanoids produced by the oxidation of tissue phospholipids by oxygen radicals. The amount of 8-isoprostane generated is thus an indication of ROS production.
# neutrophils = test: toxicity to neutrophils; assay type: cell-based, mouse
# dHL-60 cells [3] = test: antioxidant (ROS scavenger) test in dHL-60 cells pre-stimulated with fMLP; assay type: cell-based, human; settings: fMLP 30 min prior to treatment
# Experimental: (A) Apoptosis analysis by FACS of HL-60 cells treated with compound or vehicle control for 2 hours prior to 7-AAD and Annexin V staining. (B) HL-60 cells from A were harvested and lysates were immunoblotted for levels of pPAK, and actin was used as a control for loading. (C) F-actin reorganization in freshly isolated fMLP-stimulated primary murine neutrophils was analyzed. […] Cells were exposed to a 10 μM dose of Phox-I1, Phox-I2, and Analog 13, and 200 nM nocodazole. (D) The effect of Phox-I on NOX4 mediated ROS production was tested in primary murine neutrophils transfected with a NOX4 expressing plasmid. 10 μM Phox-I1 was applied to the cells for 30 min prior to ROS assay by luminol chemiluminescence in the presence of HRP. The fMLP-stimulated ROS activity in the presence or absence of 10 uM Phox-I1 was measured in parallel. (E) The antioxidant abilities of these lead compounds were tested by prestimulating dHL-60 cells with fMLP for 30 minutes prior to treatment with Phox-I1 or Phox-I2. Levels of superoxide were analyzed by DCFDA assay and FACS. NAC, apocyanin, DPI, and NSC23766 treated cells served as controls. […] (G) For stability assay, DMSO-differentiated HL-60 cells were treated with 20 μM dose of compound for the indicated time period prior to fMLP stimulation and DCFDA ROS production assay by FACS analysis.
# Phox-I1 was then applied to primary murine neutrophils expressing the constitutively active NOX4. […] To further rule out that Phox-I1 and Phox-I2 may simply act as scavengers of ROS, dHL-60 cells were pre-stimulated with fMLP for 30 min prior to treatment with Phox-I1 or Phox-I2.
# dHL-60 cells [4] = test: DCFDA ROS assay after wash and recovery (affinity assay); assay type: cell-based, human; settings: 2 hr treatment, recovery 4 hr or 2 hr
# Experimental: (A) Apoptosis analysis by FACS of HL-60 cells treated with compound or vehicle control for 2 hours prior to 7-AAD and Annexin V staining. (B) HL-60 cells from A were harvested and lysates were immunoblotted for levels of pPAK, and actin was used as a control for loading. (C) F-actin reorganization in freshly isolated fMLP-stimulated primary murine neutrophils was analyzed. […] Cells were exposed to a 10 μM dose of Phox-I1, Phox-I2, and Analog 13, and 200 nM nocodazole. (D) The effect of Phox-I on NOX4 mediated ROS production was tested in primary murine neutrophils transfected with a NOX4 expressing plasmid. 10 μM Phox-I1 was applied to the cells for 30 min prior to ROS assay by luminol chemiluminescence in the presence of HRP. The fMLP-stimulated ROS activity in the presence or absence of 10 uM Phox-I1 was measured in parallel. (E) The antioxidant abilities of these lead compounds were tested by prestimulating dHL-60 cells with fMLP for 30 minutes prior to treatment with Phox-I1 or Phox-I2. Levels of superoxide were analyzed by DCFDA assay and FACS. NAC, apocyanin, DPI, and NSC23766 treated cells served as controls. (F) For affinity assay, DMSO-differentiated HL-60 cells were treated with standard effective dose of indicated compound for 2 hours, washed, and allowed to recover in normal media for 4 hours or 2 hours prior to fMLP stimulation and DCFDA ROS production assay by FACS analysis. (G) For stability assay, DMSO-differentiated HL-60 cells were treated with 20 μM dose of compound for the indicated time period prior to fMLP stimulation and DCFDA ROS production assay by FACS analysis.
# Next, a stability experiment was performed to determine the duration of effectiveness of the compound in suppressing neutrophils. To analyze the relative affinities of these compounds for the p67^phox target in cells, DCFDA ROS production assays were performed in dHL-60 cells treated with compound for 2 hr followed by wash and recovery for 4 hr or 2 hr in normal media prior to ROS production analysis.
# [5] = tested on: undifferentiated HL-60 cells; test: apoptosis analysis by FACS (Annexin V / 7-AAD); assay type: cell-based, human; settings: 20 or 100 μM
# Experimental: as §1
# In order to determine potency and cytotoxicity of Phox-I1 and Phox-I2, the levels of apoptosis were assessed in undifferentiated HL-60 cells treated with 20 or 100 μM Phox-I1, Phox-I2, or NSC23766 by FACS analysis for Annexin V (FIG. 4A).
# Pak = test: immunoblot of phosphorylated Pak; assay type: cell-based, human; settings: 18 hr treatment
# Experimental: Whole-cell lysates were prepared by cell extraction using lysis buffer containing 20 mM Tris-HCl (pH 7.6), 100 mM NaCl, 10 mM MgCl2, 1% Triton X-100, 0.2% sodium deoxycholate, 1 mM phenylmethylsulfonyl fluoride, 10 μg/mL of leupeptin, 1 μg/mL of aprotinin, and 1 mM dithiothreitol for 30 min. Equal amounts of protein, as determined by Bradford assay, were resolved by SDS-PAGE. Specific proteins were detected by standard 9 immunoblotting procedures using the following primary antibodies: (Cell Signaling, 1:500 dilution) phospho-PAK1 (Ser144)/PAK2 (Ser141), (Sigma-Aldrich 1:500) β-Actin.
# To analyze the biochemical specificity of these lead inhibitors on the effector pathways of active Rac1, undifferentiated HL-60 cells were treated with Phox-I1, Phox-I2, or NSC23766 for 18 hr. Immunoblot of the cell lysates was performed to probe the activity of Pak, a Rac effector other than p67^phox (FIG. 4B).
# [6] = tested on: primary murine neutrophils; test: F-actin immunofluorescence, polarization upon fMLP stimulation; assay type: cell-based, mouse; settings: 200 nM; control 80%
# Experimental: Cells were pretreated with compound for 40 minutes prior to wash, and resuspended in HBSS with compound. Cells were allowed to adhere to fibronectin (Sigma Aldrich) coated glass coverslips (15 min) and then stimulated with 100 nM fMLP (3 min). Coverslips were then fixed with 3.7% paraformaldehyde (Sigma Aldrich) and then staining for […] was performed with rhodamine phalloidin per the manufacturer's instructions (Molecular Probes). Another method of addressing Rac-signaling specificity in neutrophils is by monitoring their ability to polarize actin to the leading edge upon fMLP stimulation. Neither Phox-I1, Phox-I2, nor an analog 13 (all at 10 μM), were able to block the Rac-mediated dynamic process of F-actin polarization to the leading edge of primary murine neutrophils as observed by F-actin immunofluorescence imaging (FIG. 4C, left panel). F-actin polarization was evident in about 80% of each treatment group of cells as in the control, untreated cells (FIG. 4C, right panel).
structure (smiles),measurement,setting,value
Fc1cccc(C2Nc3ccc(F)cc3C3C=CCC32)c1 (centres unmarked) [Compound 100],"ROS inhibitory activity, Phox-I2 analogs",[1],retain activity
same,"superoxide inhibition (NBT), Phox-I2 analogs",[2]; FIG. 5C,profound superoxide inhibition
same,"lung histology: neutrophil infiltration, alveoli wall thickness, lung architecture",LPS-induced ALI in mice,attenuated
Fc1cccc([C@H]2Nc3ccc(F)cc3[C@@H]3OCCC[C@H]23)c1 [Compound 101],ROS inhibition (NBT positive cells),[2],highest level of ROS inhibition
same,"ROS inhibition, dose response (NBT)","[2]; 0.1 to 10 μM, FIG. 10",most potent ROS inhibitor
Fc1cccc([C@@H]2Nc3ccc(Br)cc3[C@@H]3C=CC[C@@H]32)c1 [Compound 102],ROS inhibition (NBT positive cells),[2],highest level of ROS inhibition
Fc1ccc2c(c1)[C@@H]1C=CC[C@@H]1[C@H](c1ccc(Cl)s1)N2 [Compound 103],ROS inhibition (NBT positive cells),[2],highest level of ROS inhibition
Fc1ccc2c(c1)[C@@H]1C=CC[C@@H]1[C@H](c1cccc(Cl)c1)N2 [Compound 106],ROS inhibition (NBT positive cells),[2],highest level of ROS inhibition
Fc1cccc(C2Nc3ccc(F)cc3C3C=CCCC32)c1 (centres unmarked) [Compound 109],toxicity to neutrophils,neutrophils,toxic to neutrophils
"c1ccc2c(c1)[I+]c1ccccc1-2 [DPI, diphenyleneiodonium]",levels of superoxide already produced,dHL-60 cells [3],do not affect
"CC(=O)N[C@@H](CS)C(=O)O [NAC, reference compound]",ROS inhibition after wash,dHL-60 cells [4],retained the ability to inhibit ROS production
"CCN(CC)CCCC(C)Nc1nc(C)cc(Nc2ccc3nc(C)cc(N)c3c2)n1 (centres unmarked) [NSC23766, reference compound]",cell apoptosis (Annexin V),[5],no detectable effect on cell apoptosis
same,phosphorylated Pak levels,Pak,abrogated
same,levels of superoxide already produced,dHL-60 cells [3],do not affect
same,ROS inhibition after wash,dHL-60 cells [4],retained the ability to inhibit ROS production
"COC(=O)Nc1nc2ccc(C(=O)c3cccs3)cc2[nH]1 [Nocodazole, reference compound]",cells with F-actin polarization,[6],~20%
COc1cc(C(C)=O)ccc1O [apocyanin],levels of superoxide already produced,dHL-60 cells [3],do not affect
